Data set [1] deals with ovariectomized rats. Briefly: Wet weight of internal organs of ovariectomized rats after drug administration. The following applies: OVX rats. The procedure:
To find out quercetin effect on internal organ of test animal, liver, kidney, brain, uterus, skin, and tibia were removed from the test animals administered with test agents for 9 weeks after operation and wet weight of each organ was measured (see: Table 4).

The nature of data set [2]: Body weight of ovariectomized rats during drug administration.
Procedure: (§1) Female SD (Sprague-Dawley) rats, a model animal for type I osteoporosis occurring after menopause were employed for evaluating pharmacological effectiveness of quercetin. Female rats (10 weeks old) weighing 200 to 300 g, obtained from the Korea Research Institute of Chemical Technology were employed as experimental animals. Experiment was carried out by the procedure which comprises removing ovary, administration of agents to the each group of rats, and at certain days after ovariectomy, the rats were sacrificed and subjected to analyses including measurement of body weight, examination of internal organs, measurement of trabecular bone area, complete blood count, and biochemical analyses of plasma.
(§2) The Sham group, animals operated upon for the surgery as in the ovariectomized rats except for removing ovary, were employed to compare the changes caused solely by ovariectomy in control group which were ovariectomized but no agent was administered. Control group was employed to compare the changes caused by administration of agents in test group which were ovariectomized and administered with testing agents.
(§3) During the period of administration, blood was sampled once a week. After 9-week administration, entire blood was withdrawn with heparin treatment. Following complete blood count (CBC), the blood was centrifuged at 3,000 rpm for 20 minutes to obtain plasma which was stored at −70° C. until use. For measurement of bone mineral density, the lumbar spine L5 and L6, and right tibia were removed and stored separately in 4% (v/v) formalin solution.
In data set [3] the test system is osteoclasts. Description: Osteoclast proliferation, count of TRAP-positive multinucleated cells. The class given is cell-based, ICR mice. The following applies: for Number of osteoclast (% of control group): day 2, TRAP staining. How it is done: ICR mice (Korea Research Institute of Chemical Technology, Taejon, Korea) were fed with calcium deficient diet (ICN Biomedicals, Inc., Ohio, U.S.A.) for 4 weeks to activate osteoclasts. The right and left tibiae and femurs of the calcium […] were removed avoiding contamination of surrounding muscle tissues. Femurs and right and left tibiae, classified on the clean bench and kept on ice separately, were added into the α-MEM containing 100 μg/ml streptomycin and then vigorously shaken respectively to extract osteoclasts into the medium. After kept on ice for 5 minutes, the cell suspension was centrifuged at 800×g for 3 minutes and the cell pellet was resuspended in a α-MEM nutrient medium supplemented with 10% FBS, 100 μg/ml streptomycin and 100 unit/ml penicillin. The cell suspension was distributed into wells of a 24-well plate at a cell number of 3.5×10^6/well. To the osteoclasts obtained in Example 2-1 above, quercetin was added to yield concentrations of 1×10^−8 to 1×10^−2 mg/ml. On day 2, the cells were subjected to tartrate-resistant acid phosphatase (TRAP) staining using a commercially available kit (Sigma Chemical Co., U.S.A.), followed by counting of osteoclasts which are TRAP-positive multinucleated cells (MNC), judged by more than three nuclei in a cell stained red (see: Table 2).

Data set [4] concerns mice. Particulars: orally administered, M. Sullivan et al. 1951; cited from earlier work.
For data set [5] the following is noted: rat, in vivo.
Procedure: as §1, §2, §3
[6] abbreviates: 9 weeks i.p. (E2 1 μg/kg/day; quercetin, genistein 10 mg/kg/day).

Values joined by “and” are separate entries in the source; they are usually repeats but may differ in a detail not shown here. Equal entries are not always repeated. Where two headings read alike, the source gives them in different places.

In data set [1] (setting [6]), `O=c1c(-c2ccc(O)cc2)coc2cc(O)cc(O)c12` [Genistein, genistein] showed a Brain wet weight of 1.98 ± 0.03 g. The same molecule registered a Kidney wet weight in data set [1] (setting [6]) of 1.83 ± 0.03 g. The molecule further had a Liver wet weight in data set [1] (setting [6]) of 10.03 ± 0.36 g. The Skin wet weight in data set [1] (setting [6]) was determined as 188 ± 9 mg. The Tibia wet weight in data set [1] (setting [6]) was found to be 0.537 ± 0.008 g. Besides, in data set [1] (setting [6]), the Uterus wet weight came to 106 ± 3 mg. In data set [1] (9 weeks i.p., compared with control group), the “Effect on weight of uterus / uterine hypertrophy (in words)” value was “did not give rise to change in weight of uterus”. The “Weight” value in data set [2] (OVX rats, 1 week after operation (start of administration)) came to 242.12 ± 5.96 g; in data set [2] (OVX rats, i.p. from 1 week after operation (E2 1 μg/kg/day; quercetin, genistein 10 mg/kg/day), 2 weeks after operation), 270.00 ± 8.05 g; in data set [2] (OVX rats, i.p. from 1 week after operation (E2 1 μg/kg/day; quercetin, genistein 10 mg/kg/day), 3 weeks after operation), 296.20 ± 7.68 g; in data set [2] (OVX rats, i.p. from 1 week after operation (E2 1 μg/kg/day; quercetin, genistein 10 mg/kg/day), 4 weeks after operation), 310.80 ± 7.80 g; in data set [2] (OVX rats, i.p. from 1 week after operation (E2 1 μg/kg/day; quercetin, genistein 10 mg/kg/day), 5 weeks after operation) it was 317.29 ± 7.93 g; in data set [2] (OVX rats, i.p. from 1 week after operation (E2 1 μg/kg/day; quercetin, genistein 10 mg/kg/day), 6 weeks after operation), 327.19 ± 8.31 g. Also, the “Weight” value is on record as 332.80 ± 9.23 g in data set [2] (OVX rats, i.p. from 1 week after operation (E2 1 μg/kg/day; quercetin, genistein 10 mg/kg/day), 7 weeks after operation); 336.38 ± 9.01 g in data set [2] (OVX rats, i.p. from 1 week after operation (E2 1 μg/kg/day; quercetin, genistein 10 mg/kg/day), 8 weeks after operation); 342.71 ± 8.26 g in data set [2] (OVX rats, i.p. from 1 week after operation (E2 1 μg/kg/day; quercetin, genistein 10 mg/kg/day), 9 weeks after operation); 347.23 ± 7.57 g in data set [2] (OVX rats, i.p. from 1 week after operation (E2 1 μg/kg/day; quercetin, genistein 10 mg/kg/day), 10 weeks after operation); 217.55 ± 7.24 g in data set [2] (before operation (baseline, before administration)). For the same molecule, the “Body weight increase after ovariectomy (in words)” value in data set [2] (OVX rats, compared with control group, E2 1 μg/kg/day, quercetin or genistein 10 mg/kg/day) is reported as “rapid increase of body weight”.
In the case of `O=c1c(O)c(-c2ccc(O)c(O)c2)oc2cc(O)cc(O)c12` [Quercetin, quercetin], the “Inhibitory effect on the osteoclast proliferation (in words)” value in data set [3] (1×10^−8 to 1×10^−4 mg/ml) was “little inhibitory effect”. Further, the “Number of osteoclast (% of control group)” value in data set [3] (1 × 10^−2 mg/ml) was 25 % of control group and 24.7 ± 5.7 % of control group; in data set [3] (1 × 10^−3 mg/ml), 61 % of control group and 61.1 ± 4.1 % of control group; in data set [3] (1 × 10^−4 mg/ml), 89.6 ± 3.2 % of control group; in data set [3] (1 × 10^−6 mg/ml), 96.8 ± 2.7 % of control group; in data set [3] (1 × 10^−8 mg/ml) it was 100.9 ± 1.8 % of control group. For the same molecule, in data set [4], the LD50 result was “not less than 160 mg/kg”. The “Weight” value in data set [5] was 221.87 ± 7.57 g.

The record behind these values is US20040162247A1, “Therapeutic agent or osteoporosis comprising an active ingredient of quercetin derivatives” (priority 2000, published 2004).
